Assay: recombinant UMI read abundance after kanamycin selection (control-corrected) (log10(CPM+1)); higher = more efficient recombination; extreme values may be limits of the assay; sequences stand for … in AGTGCAGAGAAAATCGGCCAGTTTTCTCTGCCTGCAGTCCGCATGCCGTGGGACCCCTTGGGTTCTAACCTGTTGCCTAGATTTATGCAGCGGACTGCCTTTCTCCCAAAGTGATAAACCGG…AGGTTGGTTTCACT; site = the 11-nt donor
Outline: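 Reported values are log10(CPM+1) from a pooled Escherichia coli screen of donor and donor-binding-loop pairs for the IS621 bridge recombinase. Selection used IPTG (0.07 mM) plus kanamycin, against unselected plating, each in two replicates. Recombinant UMIs were amplified across the donor–target junction, sequenced, converted to CPM, averaged over replicates and scaled by control-derived factors.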
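Also: IS621 bridge recombinase in Escherichia coli cells against a fixed T5 target plasmid.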

| Sequence | recombinant UMI read abundance (log10) |
| --- | --- |
| TAGCTAGCATGGACCGGTTTTCCCGGTAATCCGTATTTGAA (site CAGCTAGCTTT) | 0.178 |
| CGGAATACATGGACCGGTTTTCCCGGTAATCCGTATTTGTC (site CGGAATACTGA) | 1.64 |
| GGTACGTCATGGACCGGTTTTCCCGGTAATCCGTATTTGTT (site GGTAGGTCTAA) | 0.00929 |
| ACACATCCATGGACCGGTTTTCCCGGTAATCCGTATTTGAG (site ACACATCCTGT) | 0 |
| AGGAAGACATGGACCGGTTTTCCCGGTAATCCGTATTTGCA (site AGGAACACTTG) | 1.51 |
| CGAGGACCATGGACCGGTTTTCCCGGTAATCCGTATTTGGG (site CGAGTACCTCC) | 0 |
| GGCCACCCATGGACCGGTTTTCCCGGTAATCCGTATTTGTT (site GTCCACCCTAA) | 0.0225 |
| GTTGTCCCATGGACCGGTTTTCCCGGTAATCCGTATTTGGT (site GTTGTTCCTAC) | 0 |
| CTACCATCATGGACCGGTTTTCCCGGTAATCCGTATTTGAC (site CTACCATCTGT) | 2.39 |
| AATTGTGCATGGACCGGTTTTCCCGGTAATCCGTATTTGGA (site AATTATGCTTC) | 0.773 |
| GTTCGCGCATGGACCGGTTTTCCCGGTAATCCGTATTTGCA (site GTTCGGGCTTG) | 0 |
| CATCGTTCATGGACCGGTTTTCCCGGTAATCCGTATTTGCA (site CATCGTTCTTG) | 2.25 |
| ATAAGGCCATGGACCGGTTTTCCCGGTAATCCGTATTTGAC (site ATAAGGCCTGA) | 0 |
| TCGGAATCATGGACCGGTTTTCCCGGTAATCCGTATTTGCG (site TAGGAATCTCG) | 0.861 |
| CACTTGGCATGGACCGGTTTTCCCGGTAATCCGTATTTGGA (site CACGTGGCTTC) | 0.024 |
| GACAATCCATGGACCGGTTTTCCCGGTAATCCGTATTTGAA (site GCCAATCCTTT) | 0 |
| CGATCGACATGGACCGGTTTTCCCGGTAATCCGTATTTGTT (site CGATCGTCTAA) | 0.00706 |
| AAAGCAGCATGGACCGGTTTTCCCGGTAATCCGTATTTGCT (site AAAGCAGCTAG) | 1.82 |
| CGGCGTACATGGACCGGTTTTCCCGGTAATCCGTATTTGCT (site CGCCGTACTAG) | 0.201 |
| ACATCTTCATGGACCGGTTTTCCCGGTAATCCGTATTTGTG (site ACATCTGCTCA) | 0 |
| GGAACGTCATGGACCGGTTTTCCCGGTAATCCGTATTTGTT (site GGCACGTCTAA) | 0.00816 |
| CTCCCTGCATGGACCGGTTTTCCCGGTAATCCGTATTTGAG (site CTCCCTCCTCT) | 0.00848 |
| ATCCTGGCATGGACCGGTTTTCCCGGTAATCCGTATTTGAC (site ATCCTGGCTGT) | 0 |
| GGCCACCCATGGACCGGTTTTCCCGGTAATCCGTATTTGTT (site GGCCTCCCTAA) | 0.0064 |
| GACTAACCATGGACCGGTTTTCCCGGTAATCCGTATTTGGT (site GACAAACCTAC) | 0.0462 |

| Sequence | recombinant UMI read abundance (log10) |
| --- | --- |
| CCATCTTCATGGACCGGTTTTCCCGGTAATCCGTATTTGCT (site CCATCTTCTAG) | 0.0559 |
| CCCTTATCATGGACCGGTTTTCCCGGTAATCCGTATTTGTC (site CCCATATCTGA) | 0 |
| GTTGTTACATGGACCGGTTTTCCCGGTAATCCGTATTTGGT (site GTTGTTTCTAC) | 0 |
| GCGGAGGCATGGACCGGTTTTCCCGGTAATCCGTATTTGTG (site GCGGAGGCTCA) | 1.37 |
| CTGCTCCCATGGACCGGTTTTCCCGGTAATCCGTATTTGCT (site CTGCTTCCTAG) | 0 |
| TTACGTCCATGGACCGGTTTTCCCGGTAATCCGTATTTGCA (site TTACGTCCTTG) | 0.977 |
| CCAGGTGCATGGACCGGTTTTCCCGGTAATCCGTATTTGAT (site CCAGGTTCTAT) | 0.204 |
| CGCATGTCATGGACCGGTTTTCCCGGTAATCCGTATTTGTT (site CGCATGTCTAA) | 2.52 |
| GTAAGAACATGGACCGGTTTTCCCGGTAATCCGTATTTGGC (site GTGAGAACTGC) | 1.09 |
| ACAGAGACATGGACCGGTTTTCCCGGTAATCCGTATTTGCG (site ACAGAGACTCG) | 2.84 |
| CATTAGACATGGACCGGTTTTCCCGGTAATCCGTATTTGAG (site CGTTAGACTCT) | 0.492 |
| AGCCTCTCATGGACCGGTTTTCCCGGTAATCCGTATTTGAC (site AGCCTCTCTGT) | 0 |
| ACTAGTTCATGGACCGGTTTTCCCGGTAATCCGTATTTGGT (site ACTAGTCCTAC) | 0.0335 |
| CCGTTCTCATGGACCGGTTTTCCCGGTAATCCGTATTTGGG (site CCGTTCTCTCC) | 0 |
| ACTAGTGCATGGACCGGTTTTCCCGGTAATCCGTATTTGGT (site AATAGTGCTAC) | 0.282 |
| TCAGTTCCATGGACCGGTTTTCCCGGTAATCCGTATTTGAA (site TCAGTTCCTTT) | 0.398 |
| CTCCAAGCATGGACCGGTTTTCCCGGTAATCCGTATTTGAG (site TTCCAAGCTCT) | 0.018 |
| TTGTGCTCATGGACCGGTTTTCCCGGTAATCCGTATTTGGG (site TTGTGCTCTCC) | 0.0159 |
| TACTTAACATGGACCGGTTTTCCCGGTAATCCGTATTTGCT (site TACTTTACTAG) | 0 |
| GATCGGACATGGACCGGTTTTCCCGGTAATCCGTATTTGAC (site GATTGGACTGT) | 0 |
| TGGCCTTCATGGACCGGTTTTCCCGGTAATCCGTATTTGGT (site TCGCCTTCTAC) | 1.02 |
| CGGACATCATGGACCGGTTTTCCCGGTAATCCGTATTTGCT (site CGGAGATCTAG) | 0 |
| GAAGGACCATGGACCGGTTTTCCCGGTAATCCGTATTTGCG (site GAAGGACCTCG) | 0 |
| CCGTTGACATGGACCGGTTTTCCCGGTAATCCGTATTTGCT (site CCGTTCACTAG) | 0 |
| CATTTGGCATGGACCGGTTTTCCCGGTAATCCGTATTTGGA (site CATTTGGCTTC) | 0.328 |

| Sequence | recombinant UMI read abundance (log10) |
| --- | --- |
| AGCCTTTCATGGACCGGTTTTCCCGGTAATCCGTATTTGGC (site AGCCTTTCTGT) | 0 |
| CAAGCGACATGGACCGGTTTTCCCGGTAATCCGTATTTGTG (site CAAGCGACTCA) | 1.19 |
| CTGCGACCATGGACCGGTTTTCCCGGTAATCCGTATTTGCT (site CTGCGACCTAG) | 0 |
| GCCAATCCATGGACCGGTTTTCCCGGTAATCCGTATTTGAA (site GCCAATCCTTT) | 0.53 |
| GGAGTGGCATGGACCGGTTTTCCCGGTAATCCGTATTTGGG (site GGAGTGGCTAC) | 0.497 |
| CTCCCTACATGGACCGGTTTTCCCGGTAATCCGTATTTGAG (site CTCCCTTCTCT) | 0.0166 |
| AGACAATCATGGACCGGTTTTCCCGGTAATCCGTATTTGTA (site AGACAATCTTA) | 2.63 |
| CGATCGACATGGACCGGTTTTCCCGGTAATCCGTATTTGTT (site CGATCGACTAC) | 0.0194 |
| CTCTCATCATGGACCGGTTTTCCCGGTAATCCGTATTTGCT (site CTCTCATCTAG) | 2.05 |
| CAATTGGCATGGACCGGTTTTCCCGGTAATCCGTATTTGGA (site CACTTGGCTTC) | 0.0126 |
| GGCCACCCATGGACCGGTTTTCCCGGTAATCCGTATTTGTT (site GGCTACCCTAA) | 0.031 |
| GTTGTTCCATGGACCGGTTTTCCCGGTAATCCGTATTTGGC (site GTTGTTCCTCC) | 0.0108 |
| GAACGGACATGGACCGGTTTTCCCGGTAATCCGTATTTGAA (site GAACGGACTTT) | 0.965 |
| AGTGTCACATGGACCGGTTTTCCCGGTAATCCGTATTTGGC (site AGTGTCACTGC) | 2.62 |
| CCCTTATCATGGACCGGTTTTCCCGGTAATCCGTATTTGTC (site CCCCTATCTGA) | 0 |
| TCATACCCATGGACCGGTTTTCCCGGTAATCCGTATTTGTG (site TCATACCCTCA) | 0 |
| ACTGTATCATGGACCGGTTTTCCCGGTAATCCGTATTTGCC (site ACTGTATCTGG) | 2.92 |
| CGTGTGGCATGGACCGGTTTTCCCGGTAATCCGTATTTGCT (site CGTCTGGCTAG) | 0.00526 |
| ATGCAGGCATGGACCGGTTTTCCCGGTAATCCGTATTTGGC (site ATGAAGGCTGC) | 0 |
| CGGTCTTCATGGACCGGTTTTCCCGGTAATCCGTATTTGCT (site CGATCATCTAG) | 0 |
| TAGAATACATGGACCGGTTTTCCCGGTAATCCGTATTTGCC (site TAGAATACTGG) | 0 |
| CGATTTACATGGACCGGTTTTCCCGGTAATCCGTATTTGGC (site CGATTTACTGC) | 0 |
| TGCAATCCATGGACCGGTTTTCCCGGTAATCCGTATTTGAA (site TGCAATCCTTT) | 1.16 |
| GCGAAAACATGGACCGGTTTTCCCGGTAATCCGTATTTGCT (site GCGAAAACTTG) | 0 |
| GAGTGCCCATGGACCGGTTTTCCCGGTAATCCGTATTTGCC (site GAGTGCCCTGG) | 0 |
